The values that follow come from paper PMC3176258, “A genomic biomarker signature can predict skin sensitizers using a cell-based in vitro alternative to animal tests” (BMC Genomics, 2011).

One may read the solubility as the concentration that dissolves in the medium under given conditions.

Data set [1] concerns MUTZ-3 cells. In words: Transcriptional profiling (Affymetrix Human Gene 1.0 ST arrays, PCA) after 24 h stimulation. It is filed as cell-based. The following applies: for Potency predicted by Prediction Signature gene expression profile: 200 transcripts, PCA, compared with LLNA potency, Figure 4C.
Data set [2] deals with MUTZ-3 cells. In words: Cytotoxicity by propidium iodide, relative viability. As for the experimental part: A panel of 40 chemical compounds, consisting of 20 sensitizers and 20 non-sensitizers were used for cell stimulations. […] All chemicals were from Sigma-Aldrich, St. Louis, MO, USA. Compounds were dissolved in either dimethyl sulfoxide (DMSO) or distilled water. Prior to stimulations, the cytotoxicity of all compounds was monitored, using propidium iodide (PI) (BD Biosciences, San Diego, CA) using protocol provided by the manufacturer. The relative viability of stimulated cells was calculated as [drawing 1]
For toxic compounds, the concentration yielding 90% relative viability (Rv90) was used. For non-toxic compounds, a concentration of 500 μM was used. For non-toxic compounds that were insoluble at 500 μM in medium, the highest soluble concentration was used. For compounds dissolved in DMSO, the final concentration of DMSO in each well was 0.1%.
The human myeloid leukemia-derived cell line MUTZ-3 (DSMZ, Braunschweig, Germany) was maintained in α-MEM (Thermo Scientific Hyclone, Logan, UT) supplemented with 20% (volume/volume) fetal calf serum (Invitrogen, Carlsbad, CA) and 40 ng/ml rhGM-CSF (Bayer HealthCare Pharmaceuticals, Seattle, WA), as described. Cultures were maintained at 200.000 cells/ml during expansion, with a media change every 3-4 days. No differentiating steps were performed. Instead, the proliferating progenitor MUTZ-3 was used for stimulations, as delivered by the supplier. Prior to each experiment, the cells were immunophenotyped using flow cytometry as a quality control. Cells were seeded in 6-well plates at 200.000 cells/ml. Stock solutions of each compound were prepared in either DMSO or distilled water, and were subsequently diluted so the in-well concentrations corresponded to the Rv90 value, and in-well concentrations of DMSO were 0.1%. Cells were incubated for 24 h at 37°C and 5% CO2. Thereafter, cells were harvested and analyzed by flow cytometry. In parallel, harvested cells were lysed in TRIzol reagent (Invitrogen) and stored at -20°C until RNA extraction. Stimulations with chemicals were performed in three individual experiments, so that triplicates samples were obtained.

The subject of data set [3] is MUTZ-3 cells. Briefly: CD86 cell surface expression by flow cytometry after 24 h stimulation. The format is cell-based, human. The note with it: for CD86 surface expression: flow cytometry, Student's t test. As for the experimental part:
CD86 is the most extensively studied biomarker for sensitization to date, using e.g. monocyte derived dendritic cells (MoDCs) or human cell lines and their progenitors, such as THP-1, U-937 and KG-1. Thus, as a reference, cell surface expression of CD86 was measured with flow cytometry after 24 h stimulation, using 20 sensitizers and 20 non-sensitizers, as well as vehicle controls (Figure 2). […]. […] Consequently, CD86 cannot classify skin sensitizers, using a system based on MUTZ-3 cells.
No differentiating steps were performed. […] Thereafter, cells were harvested and analyzed by flow cytometry.
All cell surface staining and washing steps were performed in PBS containing 1% BSA (w/v). Cells were incubated with specific mouse mAbs for 15 min at 4°C. The following mAbs were used for flow cytometry: FITC-conjugated CD1a (DakoCytomation, Glostrup, Denmark), CD34, CD86, and HLA-DR (BD Biosciences), PE-conjugated CD14 (DakoCytomation), CD54 and CD80 (BD Biosciences). Mouse IgG1, conjugated to FITC or PE were used as isotype controls (BD Biosciences) and PI was used to assess cell viability. FACSDiva software was used for data acquisition with FACSCanto II instrument (BD Bioscience). 10,000 events were acquired and gates were set based on light scatter properties to exclude debris and nonviable cells. Further data analysis was performed using FCS Express V3 (De Novo Software, Los Angeles, CA).
In general terms: Flow cytometry measures light scatter and fluorescence of single cells or particles in a stream.

Another data set concerns mice. The note with it: cited from earlier work.
The nature of a further data set: physchem. The following applies: aqueous buffer, kinetic from dmso stock.
Another data set is described as follows: Max solubility in medium. The note with it: aqueous buffer, kinetic from dmso stock.
The mark [4] stands for this setting: 1010 transcripts, one-way ANOVA, one or more replicate, Figure 3B.
The mark [5] stands for this setting: concentration yielding 90% relative viability, propidium iodide.
[6] abbreviates: 1137 genes, multi-group ANOVA, Figure 3D.
Setting [7] is: sensitizing potency category according to LLNA, ref (14, 15, 45-48).

In brackets after ≈: the same amount, converted by molar mass. Like-named read-outs stand apart in the source and are kept apart here.

For Tween 80, in the data set on MUTZ-3 cells [1] (setting [4]), the “PCA grouping, sensitizing vs. non-sensitizing chemicals” value is “grouped closely with the sensitizers”.

Take `Nc1ccccc1O` [2-Aminophenol]: in the data set with MUTZ-3 cells [2] (setting [5]), the Rv90 worked out at 100 µM. Besides, the CD86 surface expression entry in the data set with MUTZ-3 cells [3] was “significantly up-regulated”. Further, the “frequency of CD86-positive cells” value in the data set on MUTZ-3 cells [3] (one representative experiment out of three, Figure 2A) amounted to 60.4%. Further, the “PCA grouping, each individual stimulation” value in the data set on MUTZ-3 cells [1] was “group together, separate from the negative group”. Moreover, the Potency entry in the data set on mice (mouse, in vivo) is “Strong [46]”.

With `Oc1cccc(O)c1` [Resorcinol], the CD86 surface expression result with MUTZ-3 cells [3] is “significantly up-regulated”. In the data set with MUTZ-3 cells [1] (setting [4]), the “PCA grouping, sensitizing vs. non-sensitizing chemicals” value was “grouped together with the control group”. The “PCA grouping, each individual stimulation” value in the data set on MUTZ-3 cells [1] (setting [6]) is on record as “group together, separate from the negative group”. In addition, the Potency result with mice (setting [7]) was “Moderate [48]”.

For the compound `C=O` [Formaldehyde], the Rv90 in the data set with MUTZ-3 cells [2] is 80 µM. Moreover, the “PCA grouping, each individual stimulation” value in the data set with MUTZ-3 cells [1] is given as “group together, separate from the negative group”. Also, in the data set with mice (mouse, in vivo), the Potency entry is “Strong [15]”.

As for Isoeugenol, in the data set with MUTZ-3 cells [1] (setting [4]), the “PCA grouping, sensitizing vs. non-sensitizing chemicals” value is reported as “grouped together with the control group”.

For the compound `CC1(C)S[C@@H]2[C@H](NC(=O)Cc3ccccc3)C(=O)N2[C@H]1C(=O)O` [Penicillin G], the “PCA grouping, sensitizing vs. non-sensitizing chemicals” value with MUTZ-3 cells [1] (setting [4]) is given as “grouped together with the control group”.

In the case of `O=[N+]([O-])c1ccc(Cl)c([N+](=O)[O-])c1` [2,4-Dinitrochlorobenzene], the Rv90 in the data set on MUTZ-3 cells [2] (setting [5]) was 4 µM. Besides, the CD86 surface expression entry in the data set on MUTZ-3 cells [3] is given as “significantly up-regulated”. Also, the “PCA grouping, each individual stimulation” value in the data set with MUTZ-3 cells [1] (setting [6]) is on record as “group together, separate from the negative group”. The Potency result in the data set with mice (mouse, in vivo) was “Extreme [15]”.

As for `Nc1ccc(N)c([N+](=O)[O-])c1` [2-nitro-1,4-Phenylendiamine], the CD86 surface expression entry in the data set with MUTZ-3 cells [3] is “significantly up-regulated”. For the same compound, the “PCA grouping, each individual stimulation” value in the data set with MUTZ-3 cells [1] (setting [6]) is listed as “group together, separate from the negative group”.

Take `Nc1ccc(N)cc1` [p-Phenylendiamine]: the Rv90 in the data set on MUTZ-3 cells [2] was 75 µM. For the same compound, the CD86 surface expression entry in the data set on MUTZ-3 cells [3] is listed as “significantly up-regulated”. The “PCA grouping, each individual stimulation” value in the data set on MUTZ-3 cells [1] (setting [6]) is reported as “group together, separate from the negative group”. In addition, the Potency result with mice (setting [7]) is “Strong [47]”.

Consider `O=C/C=C/c1ccccc1` [Cinnamaldehyde], for which, in the data set on MUTZ-3 cells [2] (setting [5]), the Rv90 came to 120 µM. In addition, the CD86 surface expression result with MUTZ-3 cells [3] is “significantly up-regulated”. In addition, the Potency result in the data set on mice (setting [7]) is “Moderate [47]”.

Consider `Oc1ccccc1` [Phenol], for which the “PCA grouping, sensitizing vs. non-sensitizing chemicals” value with MUTZ-3 cells [1] is “grouped closely with the sensitizers”.

With `NCCN` [Ethylendiamine], the “Potency predicted by Prediction Signature gene expression profile” value (shortened to “Potency predicted”) with MUTZ-3 cells [1] is given as “grouped together with weak sensitizers”. In the data set on MUTZ-3 cells [1] (setting [4]), the “PCA grouping, sensitizing vs. non-sensitizing chemicals” value is given as “grouped together with the control group”. Moreover, the Potency result in the data set on mice (mouse, in vivo) was “Moderate [14]”.

`O=CC=O` [Glyoxal] gave a Rv90 with MUTZ-3 cells [2] of 300 µM. In addition, the “Potency predicted” value in the data set on MUTZ-3 cells [1] is reported as “grouped together with weak sensitizers”. Further, the “PCA grouping, sensitizing vs. non-sensitizing chemicals” value with MUTZ-3 cells [1] (setting [4]) is “grouped together with the control group”. Besides, in the data set with mice (mouse, in vivo), the Potency entry is “Moderate [46]”.

Regarding `OC/C=C/c1ccccc1` [Cinnamic alcohol], the “PCA grouping, each individual stimulation” value in the data set on MUTZ-3 cells [1] (setting [6]) is given as “group together, separate from the negative group”. Also, the solubility in the data set “physchem” came out at 500 µM (≈ 67.1 µg/mL). The Potency entry with mice (setting [7]) was “Weak [46]”.

On to `CCO/C=C1\N=C(c2ccccc2)OC1=O` [Oxazolone], for which the Potency result with mice (mouse, in vivo) was “Extreme [15]”.

In the data set on MUTZ-3 cells [2] (setting [5]), `C=CC(=O)OCCO` [2-Hydroxyethyl acrylate] returned a Rv90 of 100 µM. Further, the CD86 surface expression result with MUTZ-3 cells [3] was “significantly up-regulated”. Further, the “Potency predicted” value in the data set with MUTZ-3 cells [1] was “showed resemblance to strong and extreme sensitizers”. Moreover, the “PCA grouping, each individual stimulation” value in the data set on MUTZ-3 cells [1] (setting [6]) was “group together, separate from the negative group”.

With `Sc1nc2ccccc2s1` [2-Mercaptobenzothiazole], in the data set on MUTZ-3 cells [3], the CD86 surface expression result was “significantly up-regulated”. The “PCA grouping, each individual stimulation” value in the data set with MUTZ-3 cells [1] (setting [6]) is given as “group together, separate from the negative group”. Also, in “physchem”, the solubility came out at 250 µM (≈ 41.8 µg/mL). In addition, the Potency entry with mice (setting [7]) was “Moderate [46]”.

Consider `CCCCCCC(C=O)=Cc1ccccc1` [Hexylcinnamic aldehyde], for which the “Potency predicted” value with MUTZ-3 cells [1] is “grouped together with weak sensitizers”. For the same compound, in the data set with MUTZ-3 cells [1] (setting [4]), the “PCA grouping, sensitizing vs. non-sensitizing chemicals” value was “grouped together with the control group”. This compound displayed a solubility in the data set “physchem” of 32.3 µM (≈ 7 µg/mL). The Potency entry in the data set with mice (setting [7]) was “Moderate [15]”.

The compound `C=CCc1ccc(O)c(OC)c1` [Eugenol] had a Rv90 with MUTZ-3 cells [2] (human, 24 h) of 300 µM. The “PCA grouping, sensitizing vs. non-sensitizing chemicals” value in the data set on MUTZ-3 cells [1] (setting [4]) is listed as “grouped together with the control group”. The Potency result with mice (mouse, in vivo) was “Weak [47]”.

`CCCCCCCCCCCCOS(=O)(=O)[O-].[Na+]` [Sodium dodecyl sulphate]: in the data set on MUTZ-3 cells [2], the Rv90 came out at 200 µM.

For `CCCCCCCC(=O)O` [Octanoic acid], in the data set with MUTZ-3 cells [1] (setting [4]), the “PCA grouping, sensitizing vs. non-sensitizing chemicals” value is “grouped closely with the sensitizers”.

Turning to `Clc1ccccc1` [Chlorobenzene], the concentration in solution in “Max solubility in medium” (solubility) came to 98 µM (≈ 11 µg/mL).

With `[K+].[K+].[O]=[Cr](=[O])([O-])[O][Cr](=[O])(=[O])[O-]` [Potassium dichromate], the CD86 surface expression result with MUTZ-3 cells [3] is on record as “significantly up-regulated”. Moreover, in the data set on MUTZ-3 cells [1], the “PCA grouping, each individual stimulation” value was “discrete profile”. Moreover, in the data set on mice (mouse, in vivo), the Potency result is “Extreme [14]”.

In turn, `O=Cc1ccccc1` [Benzaldehyde] displayed a solubility in “physchem” of 250 µM (≈ 26.5 µg/mL).

In “physchem”, `O=C(O)c1ccc(O)cc1` [p-Hydroxybenzoic acid] yielded a solubility of 250 µM (≈ 34.5 µg/mL).
